Assay results published in US11141403B2, “Benzimidazoles and indoles as taro inhibitors” (MERCK SHARP & DOHME CORP., priority 2015, dated 2021).

Tested on: MRSA COL (MB5393)
Experiment: TarO Inhibitor/β-Lactam Synergy Assay
Assay type: cell-based, Staphylococcus aureus
Conditions: 20 hours; for IC95: Staphylococcus aureus, TarO inhibitor alone, OD600, 95% growth inhibition, read-out: MITC95 TarO inhibitor alone, Bacteria: SA_MB5393; for MITC95 TarO inhibitor + 4 μg/mL IPM; Bacteria: SA_MB5393: in combination with 4 μg/mL imipenem; for MITC95 TarO inhibitor + 4 μg/mL IPM; Bacteria: SA_MB5393 / MITC95 TarO inhibitor + 8 μg/mL DCX; Bacteria: SA_MB5393: OD600; for MITC95 TarO inhibitor + 8 μg/mL DCX; Bacteria: SA_MB5393: in combination with 8 μg/mL dicloxacillin
Description: The TarO inhibitor/β-lactam synergy assay was performed to measure the re-sensitization of methicillin-resistant Staphylococci bacteria (MB5393: MRSA COL) to β-lactam antibiotics by TarO inhibitors. MRSA COL is a hospital-acquired penicillinase-negative clinically isolated strain commonly used in Staphylococcus aureus studies and is fully resistant to the antimicrobial bioactivity of β-lactam antibiotics, including but not limited to imipenem and dicloxacillin. […] MRSA COL is fully refractory to β-lactam antibiotic effect at the current clinical breakpoint concentrations and as such MRSA COL is fully viable at these concentrations.
The β-lactam antibiotic concentration was fixed at the clinical breakpoint (imipenem 4 μg/ml or dicloxacillin 8 μg/ml) and the TarO inhibitors were titrated by 2 fold starting from the highest concentration of 200 μM with final DMSO concentration of 2% in the assay. 5×10^5 colony forming unit of MRSA COL in cation-adjusted Mueller Hinton broth (CAMHB) was then mixed and the assay plate was incubated for 20 hours at 37° C. without shaking. After 20 hours, the optical density at 600 nm (OD600) was read for all wells to determine relative growth of MRSA COL.

SMILES	IC95	MITC95 TarO inhibitor + 4 μg/mL IPM; Bacteria: SA_MB5393	MITC95 TarO inhibitor + 8 μg/mL DCX; Bacteria: SA_MB5393
CC1(C)[C@@H]2CC[C@@]1(C)[C@H](NC(=O)CCn1c3ccccc3nc1[C@H]1CC[C@@H](C(C)(C)C)CC1)C2 [Example 33, 3-[2-(cis-4-tert-butylcyclohexyl)-1H-benzimidazol-1-yl]-N-[(1R,2R,4R)-1,7,7-trimethylbicyclo[2.2.1]hept-2-yl]propanamide]	> 200 µM	0.06 µM	–
CCN(C(=O)CCn1c(-c2ccc(OCC(F)(F)F)cc2)nc2ccccc21)C1CCCCC1 [Example 34, N-cyclohexyl-N-ethyl-3-{2-[4-(2,2,2-trifluoroethoxy)phenyl]-1H-benzimidazol-1-yl}propanamide]	> 200 µM	0.25 µM	0.54 µM
CCN(C(=O)CCn1c(C2CCCCC2)nc2ccccc21)C1CCCCC1 [Example 35, N-cyclohexyl-3-(2-cyclohexyl-1H-benzimidazol-1-yl)-N-ethylpropanamide]	> 200 µM	1.95 µM	9.38 µM
CCN(C(=O)CCn1c(-c2ccc(C(=O)OC)cc2)nc2ccccc21)C1CCCCC1 [Example 36, methyl 4-(1-{3-[cyclohexyl(ethyl)amino]-3-oxopropyl}-1H-benzimidazol-2-yl)benzoate]	> 200 µM	0.68 µM	3.91 µM
CCOc1ccc(-c2nc3ccccc3n2CCC(=O)N(CC)C2CCCCC2)cn1 [Example 38, N-cyclohexyl-3-[2-(6-ethoxypyridin-3-yl)-1H-benzimidazol-1-yl]-N-ethylpropanamide]	> 200 µM	2.08 µM	12.50 µM
CN(C(=O)CCn1c(C2CCCCC2)nc2ccccc21)C1CCCCC1 [Example 39, N-cyclohexyl-3-(2-cyclohexyl-1H-benzimidazol-1-yl)-N-methylpropanamide]	> 200 µM	4.69 µM	12.50 µM
CC(C)(C)OC(=O)NCC1CCC(c2nc3ccccc3n2CCC(=O)NC2C[C@H]3CC[C@]2(C)C3(C)C)CC1 (stereo partly drawn) [Example 40, tert-butyl ({4-[1-(3-oxo-3-{[(1R,4R)-1,7,7-trimethylbicyclo[2.2.1]hept-2-yl]amino}propyl)-1H-benzimidazol-2-yl]cyclohexyl}methyl) carbamate]	> 200 µM	2.34 µM	9.38 µM
CC(C)(C)OC(=O)N1CCC(c2nc3ccccc3n2CCC(=O)NC2C[C@H]3CC[C@]2(C)C3(C)C)C1 (stereo partly drawn) [Example 41, tert-butyl 3-[1-(3-oxo-3-{[(1R,4R)-1,7,7-trimethylbicyclo[2.2.1]hept-2-yl]amino}propyl)-1H-benzimidazol-2-yl]pyrrolidine-1-carboxylate]	> 200 µM	5.47 µM	37.50 µM
CCN(C(=O)CCn1c(-c2ccc(-n3ccnn3)cc2)nc2ccccc21)C1CCCCC1 [Example 42, N-cyclohexyl-N-ethyl-3-{2-[4-(1H-1,2,3-triazol-1-yl)phenyl]-1H-benzimidazol-1-yl}propanamide]	> 200 µM	18.75 µM	25.00 µM
CCN(C(=O)CCn1c(C2CCCN(c3nccc(OC)n3)C2)nc2ccccc21)C1CCCCC1 (centres unmarked) [Example 43, N-cyclohexyl-N-ethyl-3-(2-(1-(4-methoxypyrimidin-2-yl)piperidin-3-yl)-1H-benzo[d]imidazol-1-yl)propanamide]	100 µM	0.20 µM	0.78 µM
CCN(C(=O)CCn1c(C2CCC(C)N(c3cccc(OC)n3)C2)nc2ccccc21)C1CCCCC1 (centres unmarked) [Example 44, N-cyclohexyl-N-ethyl-3-{2-[1-(6-methoxypyridin-2-yl)-6-methylpiperidin-3-yl]-1H-benzimidazol-1-yl}propanamide]	100 µM	0.10 µM	0.20 µM
CCCCOC(=O)N1CCCC(c2nc3ccccc3n2CCC(=O)N(CC)C2CCCCC2)C1 (centres unmarked) [Example 45, butyl 3-(1-{3-[cyclohexyl(ethyl)amino]-3-oxopropyl}-1H-benzimidazol-2-yl)piperidine-1-carboxylate]	100 µM	0.20 µM	0.78 µM
CCc1nsc(N2CCCC(c3nc4ccccc4n3CCC(=O)N(CC)C3CCCCC3)C2)n1 (centres unmarked) [Example 46, N-cyclohexyl-N-ethyl-3-{2-[1-(3-ethyl-1,2,4-thiadiazol-5-yl)piperidin-3-yl]-1H-benzimidazol-1-yl}propanamide]	100 µM	1.56 µM	6.25 µM
CCN(C(=O)CCn1c(C2CCCN(c3cccc(OC)n3)C2)nc2ccccc21)C1CCCCC1 (centres unmarked) [Example 47, N-cyclohexyl-N-ethyl-3-{2-[1-(6-methoxypyridin-2-yl)piperidin-3-yl]-1H-benzimidazol-1-yl}propanamide]	100 µM	0.10 µM	0.20 µM
CCN(C(=O)CCn1c(C2CCCN(c3ccccn3)C2)nc2ccccc21)C1CCCCC1 (centres unmarked) [Example 48, N-cyclohexyl-N-ethyl-3-[2-(1-pyridin-2-ylpiperidin-3-yl)-1H-benzimidazol-1-yl]propanamide]	> 200 µM	1.56 µM	50 µM
CCCOC(=O)N1CC(c2nc3ccccc3n2CCC(=O)N(CC)C2CCCCC2)CCC1C (centres unmarked) [Example 49, propyl 5-(1-{3-[cyclohexyl(ethyl)amino]-3-oxopropyl}-1H-benzimidazol-2-yl)-2-methylpiperidine-1-carboxylate]	100 µM	0.78 µM	6.25 µM
CCN(C(=O)CCn1c(C2CCC(C)N(c3nccc(OC)n3)C2)nc2ccccc21)C1CCCCC1 (centres unmarked) [Example 50, N-cyclohexyl-N-ethyl-3-{2-[1-(4-methoxypyrimidin-2-yl)-6-methylpiperidin-3-yl]-1H-benzimidazol-1-yl}propanamide]	100 µM	0.20 µM	1.56 µM
CCCOC(=O)N1CCCC(c2nc3ccccc3n2CCC(=O)N(CC)C2CCCCC2)C1 (centres unmarked) [Example 51, Propyl 3-(1-{3-[cyclohexyl(ethyl)amino]-3-oxopropyl}-1H-benzimidazol-2-yl)piperidine-1-carboxylate]	100 µM	0.39 µM	3.13 µM
CCN(C(=O)CCn1c(C2CCCN(c3nccc(C)n3)C2)nc2ccccc21)C1CCCCC1 (centres unmarked) [Example 52, N-cyclohexyl-N-ethyl-3-{2-[1-(4-methylpyrimidin-2-yl)piperidin-3-yl]-1H-benzimidazol-1-yl}propanamide]	100 µM	1.56 µM	6.25 µM
CCN(C(=O)CCn1c(C2CCCN(C(=O)OC(C)C)C2)nc2ccccc21)C1CCCCC1 (centres unmarked) [Example 53, 1-methylethyl 3-(1-{3-[cyclohexyl(ethyl)amino]-3-oxopropyl}-1H-benzimidazol-2-yl)piperidine-1-carboxylate]	100 µM	1.56 µM	6.25 µM
CCN(C(=O)CCn1c(N2CCC(F)(F)CC2)nc2ccccc21)C1CCCCC1 [Example 55, N-cyclohexyl-3-(2-(4,4-difluoropiperidin-1-yl)-1H-benzo[d]imidazol-1-yl)-N-ethylpropanamide]	> 200 µM	1.37 µM	7.81 µM
CCN(C(=O)CCn1c(N2CCC(C(F)F)CC2)nc2ccccc21)C1CCCCC1 [Example 56, N-cyclohexyl-3-{2-[4-(difluoromethyl)piperidin-1-yl]-1H-benzimidazol-1-yl}-N-ethylpropanamide]	> 200 µM	1.17 µM	4.69 µM
CCN(C(=O)CCn1c(N2CCC(C)CC2)nc2ccccc21)C1CCCCC1 [Example 57, N-cyclohexyl-N-ethyl-3-[2-(4-methylpiperidin-1-yl)-1H-benzimidazol-1-yl]propanamide]	> 200 µM	1.30 µM	26 µM
CCN(C(=O)CCn1c(N2CCC(C(C)(C)C)CC2)nc2ccccc21)C1CCCCC1 [Example 58, 3-[2-(4-tert-butylpiperidin-1-yl)-1H-benzimidazol-1-yl]-N-cyclohexyl-N-ethylpropanamide]	> 200 µM	0.02 µM	0.13 µM
